The text below walks through data of patent publication US20260250251A1, “HETEROCYCLIC COMPOUNDS AS PI3Ka INHIBITORS” (Pikavation Therapeutics, Inc., priority 2022, published 2026).

The subject of assay [1] is SKBR3 (PIK3CA WT) cells, pSer473 AKT. Briefly: pS473 AKT assay in SKBR3 cells. The note with it: Homo sapiens, SK-BR-3, treated 2 h, read-out: SKBR3_IC50. The assay is classed as cell-based. Put shortly: (§1)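 Cells exposed 2 h to a range of PI3Kα inhibitor concentrations, then paraformaldehyde-fixed and probed for pSer473 AKT with rabbit primary overnight at 4 °C and HRP anti-rabbit secondary. Chemiluminescent cell-based ELISA read-out; IC50 from concentration-response fitting.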

Assay [2] relates to T47D (PIK3CA H1047R) cells, pSer473 AKT. Briefly: pS473 AKT assay in T47D cells. The assay is classed as cell-based. The note with it: Homo sapiens, treated 2 h, read-out: T47D_IC50. Put shortly: as §1

As to `Cn1nc(N)c2c(Oc3cc(F)ccc3Cl)c(NC(=O)c3cc(F)cc(C(F)(F)F)c3)cc(-c3cnn(C4CCOC4)c3)c21` (stereo not shown) [Example 28, N-(3-Amino-4-(2-chloro-5-fluorophenoxy)-1-methyl-7-(1-(tetrahydrofuran-3-yl)-1H-pyrazol-4-yl)-1H-indazol-5-yl)-3-fluoro-5-(trifluoromethyl)benzamide], the IC50 in assay [1] and in assay [2] was less than 1000 nM in each case.

On to `NC(=O)Cn1nc(N)c2c(Oc3cc(F)ccc3Cl)c(NC(=O)c3cc(F)cc(C(F)(F)F)c3)cc(Br)c21` [Example 33, N-(3-Amino-1-(2-amino-2-oxoethyl)-7-bromo-4-(2-chloro-5-fluorophenoxy)-1H-indazol-5-yl)-3-fluoro-5-(trifluoromethyl)benzamide], for which the IC50 in assay [1] is 1000 to 5000 nM; in assay [2], less than 1000 nM.

With `Cn1nc(N)c2c(Oc3cc(F)ccc3Cl)c(NC(=O)c3cc(F)cc(C(F)(F)F)c3)cc(C#CC3(N)CC3)c21` [Example 45, N-(3-Amino-7-((1-aminocyclopropyl)ethynyl)-4-(2-chloro-5-fluorophenoxy)-1-methyl-1H-indazol-5-yl)-3-fluoro-5-(trifluoromethyl)benzamide], the IC50 in assay [1] and in assay [2] was less than 1000 nM in each case.

For `CN1CCC(C#Cc2cc(NC(=O)c3cc(F)cc(C(F)(F)F)c3)c(Oc3cc(F)ccc3Cl)c3c(N)nn(C)c23)CC1` [Example 51, N-(3-Amino-4-(2-chloro-5-fluorophenoxy)-1-methyl-7-((1-methylpiperidin-4-yl)ethynyl)-1H-indazol-5-yl)-3-fluoro-5-(trifluoromethyl)benzamide], the figures for the IC50 in assay [1] and in assay [2] were no less than 10000 nM and less than 1000 nM, respectively.

For `Cn1nc(N)c2c(Oc3cc(F)ccc3Cl)c(NC(=O)N3CCc4ccccc43)cc(Cl)c21` [Example 64, N-(3-Amino-7-chloro-4-(2-chloro-5-fluorophenoxy)-1-methyl-1H-indazol-5-yl)indoline-1-carboxamide], the IC50 is 1000 to 5000 nM in assay [1] and less than 1000 nM in assay [2].

As for `Nc1nn2c3c(cc(NC(=O)c4cc(F)cc(C(F)(F)F)c4)c(Oc4cc(F)ccc4Cl)c13)CCC2` [Example 22, N-(2-amino-3-(2-chloro-5-fluorophenoxy)-7,8-dihydro-6H-pyrazolo[4,5,1-ij]quinolin-4-yl)-3-fluoro-5-(trifluoromethyl)benzamide], the IC50 in assay [1] and in assay [2] was less than 1000 nM in each case.

For the compound `Nc1n[nH]c2c(Cl)cc(NC(=O)c3cc(F)cc(C(F)(F)F)c3)c(Oc3cc(F)ccc3Cl)c12` [Example 12, N-(3-Amino-7-chloro-4-(2-chloro-5-fluorophenoxy)-1H-indazol-5-yl)-3-fluoro-5-(trifluoromethyl)benzamide], the IC50 in assay [1] and in assay [2] was less than 1000 nM each time.

On to `CC(=O)N1CCC(C#Cc2cc(NC(=O)c3cc(F)cc(C(F)(F)F)c3)c(Oc3cc(F)ccc3Cl)c3c(N)nn(C)c23)CC1` [Example 52, N-(7-((1-Acetylpiperidin-4-yl)ethynyl)-3-amino-4-(2-chloro-5-fluorophenoxy)-1-methyl-1H-indazol-5-yl)-3-fluoro-5-(trifluoromethyl)benzamide], for which the IC50 in assay [1] was 1000 to 5000 nM; in assay [2], less than 1000 nM.

For the compound `N#CCCn1nc(N)c2c(Oc3cc(F)ccc3Cl)c(NC(=O)c3cc(F)cc(C(F)(F)F)c3)cc(Cl)c21` [Example 34, N-(3-Amino-7-chloro-4-(2-chloro-5-fluorophenoxy)-1-(2-cyanoethyl)-1H-indazol-5-yl)-3-fluoro-5-(trifluoromethyl)benzamide], the IC50 is 1000 to 5000 nM in assay [1] and less than 1000 nM in assay [2].

As for `Cn1nc(N)c2c(Oc3cc(F)ccc3Cl)c(NC(=O)c3cc(F)cc(C(F)(F)F)c3)cc(CCO)c21` [Example 66, N-(3-Amino-4-(2-chloro-5-fluorophenoxy)-7-(2-hydroxyethyl)-1-methyl-1H-indazol-5-yl)-3-fluoro-5-(trifluoromethyl)benzamide], the IC50 in assay [1] and in assay [2] was less than 1000 nM each time.

In the case of `CNC(=O)N1CCCCC1C#Cc1cc(NC(=O)c2cc(F)cc(C(F)(F)F)c2)c(Oc2cc(F)ccc2Cl)c2c(N)nn(C)c12` (stereo not shown) [Example 80, 2-((3-Amino-4-(2-chloro-5-fluorophenoxy)-5-(3-fluoro-5-(trifluoromethyl)benzamido)-1-methyl-1H-indazol-7-yl)ethynyl)-N-methylpiperidine-1-carboxamide], the IC50 was 1000 to 5000 nM in assay [1] and less than 1000 nM in assay [2].

`Cn1nc(N)c2c(Oc3cc(F)ccc3Cl)c(NC(=O)c3cc(F)cc(C(F)(F)F)c3)cc(C#CCO)c21` [Example 49, N-(3-Amino-4-(2-chloro-5-fluorophenoxy)-7-(3-hydroxyprop-1-yn-1-yl)-1-methyl-1H-indazol-5-yl)-3-fluoro-5-(trifluoromethyl)benzamide]: the IC50 in assay [1] and in assay [2] was less than 1000 nM each time.

For `Nc1nn2c(=O)c3c(c4cc(NC(=O)c5cc(F)cc(C(F)(F)F)c5)c(Oc5cc(F)ccc5Cl)c1c42)CCC3` [Example 74, N-(4-Amino-3-(2-chloro-5-fluorophenoxy)-7-oxo-7,8,9,10-tetrahydrocyclopenta[c]pyrazolo[4,5,1-ij]quinolin-2-yl)-3-fluoro-5-(trifluoromethyl)benzamide], the IC50 in assay [1] and in assay [2] was less than 1000 nM throughout.

As for `Nc1n[nH]c2c(CN3CCOCC3)cc(NC(=O)c3cc(F)cc(C(F)(F)F)c3)c(Oc3cc(F)ccc3Cl)c12` [Example 21, N-(3-Amino-4-(2-chloro-5-fluorophenoxy)-7-(morpholinomethyl)-1H-indazol-5-yl)-3-fluoro-5-(trifluoromethyl)benzamide], the IC50 in assay [1] and in assay [2] was less than 1000 nM each time.

With `CNc1n[nH]c2ccc(NC(=O)c3cc(F)cc(C(F)(F)F)c3)c(Oc3cc(F)ccc3Cl)c12` [Example 2, N-(4-(2-Chloro-5-fluorophenoxy)-3-(methylamino)-1H-indazol-5-yl)-3-fluoro-5-(trifluoromethyl)benzamide], the figures for the IC50 in assay [1] and in assay [2] were 1000 to 5000 nM and less than 1000 nM, respectively.

`Cn1nc(N)c2c(Oc3cc(F)ccc3Cl)c(NC(=O)c3cc(F)cc(C(F)(F)F)c3)cc(C#CC3(CO)CC3)c21` [Example 44, N-(3-Amino-4-(2-chloro-5-fluorophenoxy)-7-((1-(hydroxymethyl)cyclopropyl)ethynyl)-1-methyl-1H-indazol-5-yl)-3-fluoro-5-(trifluoromethyl)benzamide]: the IC50 in assay [1] and in assay [2] was less than 1000 nM in each case.

Turning to `Cn1nc(N)c2c(Oc3cc(F)ccc3Cl)c(NC(=O)c3cc(F)cc(C(F)(F)F)c3)cc(C#CC3(O)CC3)c21` [Example 43, N-(3-Amino-4-(2-chloro-5-fluorophenoxy)-7-((1-hydroxycyclopropyl)ethynyl)-1-methyl-1H-indazol-5-yl)-3-fluoro-5-(trifluoromethyl)benzamide], the IC50 in assay [1] and in assay [2] was less than 1000 nM each time.
